Key:
[1] = test system: bronchospasm induced by the PAF; assay: Action on the bronchospasm induced by the PAF in anaesthetized guinea-pigs; type: in vivo, guinea-pig; settings: male Hartley guinea-pigs, oral, 1 hour before PAF i.v.; for Percentage of action: change versus controls; for Percentage of bronchoconstriction: controls 79. ± 5.55, dose not given
Description: 3) Action on the bronchospasm induced by the PAF
The PAF intravenous injection in anaesthetized guinea-pigs induces a bronchoconstriction with a leucopeny and a thrombocytopeny, according to the method described in S. DESQUAND, C. TOUVAY, J. RANDON, V. LAGENTE, B. VILAIN, I. MARIDONNEAU-PARINI, A. ETIENNE, J. LEFORT, P. BRAQUET and B. VARGAFTIG. Interference of BN 52021 (Ginkolide B) with the bronchopulmonary effects of PAF-acether in the guinea-pig. Eur. J. Pharmacol. 127: 83-95, 1986.
Male Hartley guinea-pigs (400-450 g) (Charles River) anaesthetized with urethane (2 g/kg IP), then are thracheotomized and submitted to a forced respiration with a breathing pump:70-80 strokes/mn, 1 ml of air/ 100 g per stroke. A catheter is introduced in the jugular vein for the injections, an other is introduced in the carotic artery for blood takings. The initial resistance is kept constant under the pressure of 10 cm of water in accordance with the Konzett and Rossler method and the air in excess is measured with a transducor for bronchospasm UGO BASILE together with an enregistror GEMINI. The guinea-pigs had received an IV injection of pancuronium (Pavulon) to inhibit their spontaneous respiration.
The compound according to the invention and the reference compound WEB 2086 (see the above cited Boehringer patent) have been prepared as suspension in gummy water and administrated orally 1 hour before the stimulation by the PAF.
The bronchoconstriction is appreciated by the calculation of the percentage of bronchoconstriction [formula] wherein A stands for induced bronchoconstriction in mm and B stands for maximum bronchoconstriction in mm.

[2] = test system: platelet agregation induced by PAF; assay: Inhibition of platelet agregation induced by PAF; type: cell-based, New Zealand rabbits; settings: Oryctolagus cuniculus, New Zealand rabbit platelets, agregometer at 57° C., Table I
Method: 1) Inhibition of platelet agregation induced by PAF
This experimentation was conducted according to the method of R. KINLOUGH. RATHBONE, J. P. CAZENAVE, M. PACKHAM and F. MUSTARD, Lab. Invest. 48, 98, 1980. In this test, New Zealand rabbits were used (male New Zealand rabbits of an average weight of 5 kg).
The determinations are made on a chrono-log Coultronics agregometer, at […] coupled with a graphic recorder; the results of these determinations (in molecular concentration) are reported on the table I on the central column.

benzodiazepine receptors = assay: Inhibition of the binding to benzodiazepine receptors (rat brains); settings: rat brains incubated 1 h 30 at 4° C.; 3H-RO-15-4788 and 3H-RO-5-4864 as tracers; Table I; read-out: BDZ receptors (inhibition of the binding to benzodiazepine receptors)
Description: 2) Inhibition of the binding to benzodiazepine receptors
The interest of the previous experimentation depends on the results obtained in this experimentation: as a compound of the invention has a benzodiazepine like structure, it is important to check whether the specific benzodiazepine activity would not appear at the dose where platelet agregation was inhibited.
Therefore, this experimentation has been conducted according to the method of MOHLER H. and RICHARD J. G. Agonist and antagonist benzodiazepine receptor intereaction in vitro, Nature, vol. 294, 763°-765, 1981.
This experimentation was conducted on rat brains incubated 1 h 30 at 4° C. using ^3 H-RO-15-4788 and ^3 H-RO-5-4864 (NEN) as tracers and […] and RO-5-4864 as reference antagonists.
The results in molecular concentration are reported in the table I, on the right hand column.

Toxicity on the mice = settings: mouse, in vivo, IP route

With Cc1nnc2n1-c1sc3c(c1C(c1ccccc1Cl)=NC2)CCN(C(=S)NC(C)C)C3 [Example 1, 6-(2-chlorophenyl)-9-isopropylthiocarbamoyl-7,8,9,10-tetrahydro-1-methyl4H-pyrido[4',3':4,5]thieno[3,2-f]1,2,4-triazolo[4,3-a]1,4-diazepine] as the compound, how does the Percentage of action [1] read?
The Percentage of action was -70.4%.

And the Percentage of bronchoconstriction [1]?
The Percentage of bronchoconstriction was 23.4%.

What about the IC50 [2] of the same compound?
The IC50 was 32.8 nM.

What about the IC50 (benzodiazepine receptors) of the same compound?
Its IC50 is 7000 nM.

With Cc1nnc2n1-c1sc3c(c1C(c1ccccc1Cl)=NC2)CCN(C(=O)NC(C)(C)C)C3 [Example 3, 6-(2-chlorophenyl)-9-tertbutylcarbamoyl-7,8,9,10-tetra-hydro-1-methyl4H-pyrido[4',3':4,5]thieno[3,2-f]1,2,4-triazolo [4,3-a]1,4-diazepine] as the compound, how does the Percentage of action [1] read?
Its Percentage of action is -63.7%.

And the Percentage of bronchoconstriction [1]?
The Percentage of bronchoconstriction was 28.7%.

What about the IC50 [2] of the same compound?
Its IC50 is 17.1 nM.

And the IC50 (benzodiazepine receptors)?
The IC50 was 430 nM.

For CCCCCCCCCCCCCCCCNC(=S)N1CCc2c(sc3c2C(c2ccccc2Cl)=NCc2nnc(C)n2-3)C1 [Example 5, 6-(2-chlorophenyl)-9-hexadecylthiocarbamoyl-7,8,9,10-tetrahydro-1-methyl4H-pyrido[4',3':4,5]thieno [3,2-f]1,2,4-triazolo [4,3-a]1,4-diazepine], which Percentage of action [1] is on record?
Its Percentage of action is -61.6%.

What about the Percentage of bronchoconstriction [1] of the same compound?
Its Percentage of bronchoconstriction is 30.3%.

And the IC50 [2]?
Its IC50 is 297 nM.

And the IC50 (benzodiazepine receptors)?
The IC50 was 63000 nM.

Which Percentage of action [1] does the source give for COc1ccc(NC(=S)N2CCc3c(sc4c3C(c3ccccc3Cl)=NCc3nnc(C)n3-4)C2)cc1 [Example 7, 6-(2-chlorophenyl)-9-(4-methoxy)phenylthiocarbamoyl-7,8,9,10-tetrahydro-1-methyl4H-pyrido[4',3':4,5]thieno[3,2-f]1,2,4-triazolo[4,3-a]1,4-diazepine] here?
Its Percentage of action is -83.5%.

And the Percentage of bronchoconstriction [1]?
The Percentage of bronchoconstriction was 13 ± 4.39%.

What about the IC50 [2] of the same compound?
Its IC50 is 301 nM.

And the IC50 (benzodiazepine receptors)?
The IC50 was 2000 nM.

What does the source list for COc1cc(NC(=O)N2CCc3c(sc4c3C(c3ccccc3Cl)=NCc3nnc(C)n3-4)C2)cc(OC)c1OC [Example 8, 6-(2-chlorophenyl)-9-(3,4,5-trimethoxy)phenylcarbamoyl-7,8,9,10-tetrahydro-1-methyl 4H-pyrido[4',3':4,5]thieno [3,2-f]1,2,4-triazolo [4,3-a]1,4-diazepine]?
Percentage of action [1]: -79.5%; Percentage of bronchoconstriction [1]: 16.2%; IC50 [2]: 11.5 nM; IC50 (benzodiazepine receptors): 1500 nM

For Cc1nnc2n1-c1sc3c(c1C(c1ccccc1Cl)=NC2)CCN(C(=O)Nc1ccc(C(C)(C)C)cc1)C3 [Example 10, 6-(2-chlorophenyl)-9-(4-tertbutyl)phenylcarbamoyl-7,8,9,10-tetrahydro-1-methyl 4H-pyrido[4',3':4,5]thieno [3,2-f]1,2,4-triazolo[4,3-a]1,4-diazepine], which Percentage of action [1] is on record?
The Percentage of action was -66.2%.

What about the Percentage of bronchoconstriction [1] of the same compound?
The Percentage of bronchoconstriction was 26.7%.

And the IC50 [2]?
The IC50 was 8.8 nM.

What about the LD50 (Toxicity on the mice) of the same compound?
The LD50 was 400 to 1000 mg/kg.

And the IC50 (benzodiazepine receptors)?
The IC50 was 5250 nM.

Which results are given for Cc1nnc2n1-c1sc3c(c1C(c1ccccc1Cl)=NC2)CCN(C(=O)Nc1ccc(C(F)(F)F)cc1)C3 [Example 14, 6-(2-chlorophenyl)-9-(4-trifluoromethyl)phenylcarbamoyl-7,8,9,10-tetrahydro-1-methyl 4H-pyrido[4',3':4,5]thieno[3,2-f]1,2,4-triazolo[4,3-a]1,4-diazepine]?
Percentage of action [1]: -38.5%; Percentage of bronchoconstriction [1]: 48.6%; IC50 [2]: 150 nM; IC50 (benzodiazepine receptors): 70500 nM

With Cc1nnc2n1-c1sc3c(c1C(c1ccccc1Cl)=NC2)CCN(C(=O)Nc1cccc(Cl)c1Cl)C3 [Example 17, 6-(2-chlorophenyl)-9-(2,3-dichloro)phenylcarbamoyl-7,8,9,10-tetrahydro-1-methyl 4H-pyrido[4',3':4,5]thieno[3,2-f]1,2,4-triazolo[4,3-a]1,4-diazepine] as the compound, how does the IC50 [2] read?
Its IC50 is 55 nM.

What about the LD50 (Toxicity on the mice) of the same compound?
Its LD50 is 400 to 1000 mg/kg.

What about the IC50 (benzodiazepine receptors) of the same compound?
The IC50 was 920 nM.

For Cc1nnc2n1-c1sc3c(c1C(c1ccccc1Cl)=NC2)CCN(C(=O)Nc1ccc(Oc2ccccc2)cc1)C3 [Example 18, 6-(2-chlorophenyl)-9-(4-phenoxy)phenylcarbamoyl-7,8,9,10-tetrahydro-1-methyl 4H-pyrido[4',3':4,5]thieno[3,2-f]1,2,4-triazolo[4,3-a]1,4-diazepine], which Percentage of action [1] is on record?
The Percentage of action was -81.8%.

What about the Percentage of bronchoconstriction [1] of the same compound?
The Percentage of bronchoconstriction was 14.1%.

What about the IC50 [2] of the same compound?
Its IC50 is 33 nM.

And the LD50 (Toxicity on the mice)?
The LD50 was 400 to 1000 mg/kg.

What about the IC50 (benzodiazepine receptors) of the same compound?
Its IC50 is 860 nM.

With Cc1nnc2n1-c1sc3c(c1C(c1ccccc1Cl)=NC2)CCN(C(=S)Nc1ccc(C(C)(C)C)cc1C(C)(C)C)C3 [Example 22, 6-(2-chlorophenyl)-9-(2,4-diterbutyl)phenylthiocarbamoyl-7,8,9,10-tetrahydro-1-methyl-4H-pyrido[4',3':4,5]thieno[3,2-f]1,2,4-triazolo[4,3-a]1,4-diazepine] as the compound, how does the Percentage of action [1] read?
Its Percentage of action is -67.7%.

What about the Percentage of bronchoconstriction [1] of the same compound?
The Percentage of bronchoconstriction was 25.5%.

And the IC50 [2]?
The IC50 was 366 nM.

What about the IC50 (benzodiazepine receptors) of the same compound?
The IC50 was 630 nM.

Which Percentage of action [1] does the source give for Cc1nnc2n1-c1sc3c(c1C(c1ccccc1Cl)=NC2)CCN(C(=S)NCc1ccco1)C3 [Example 24, 6-(2-chlorophenyl)-9-(2-furfuryl)thiocarbamoyl-7,8,9,10-tetrahydro-1-methyl-4H-pyrido[4',3':4,5]thieno[3,2-f]1,2,4-triazolo[4,3-a]1,4-diazepine] here?
Its Percentage of action is -57.9%.

And the Percentage of bronchoconstriction [1]?
Its Percentage of bronchoconstriction is 33.3%.

And the IC50 [2]?
Its IC50 is 48 nM.

And the IC50 (benzodiazepine receptors)?
Its IC50 is 650 nM.

Which Percentage of action [1] does the source give for Cc1nnc2n1-c1sc3c(c1C(c1ccccc1Cl)=NC2)CCN(C(=S)NS(=O)(=O)c1ccccc1)C3 [Example 30, 6-(2-chlorophenyl)-9-(phenylsulfonyl)thiocarbamoyl-7,8,9,10-tetrahydro-1-methyl-4H-pyrido[4',3':4,5]thieno[3,2-f]1,2,4-triazolo[4,3-a]1,4-diazepine] here?
The Percentage of action was -52.9%.

What about the Percentage of bronchoconstriction [1] of the same compound?
The Percentage of bronchoconstriction was 37.2%.

What about the IC50 [2] of the same compound?
The IC50 was 11 nM.

What about the IC50 (benzodiazepine receptors) of the same compound?
Its IC50 is 630 nM.

With Cc1nnc2n1-c1sc3c(c1C(c1ccccc1Cl)=NC2)CCN(C(=O)NS(=O)(=O)c1cccs1)C3 [Example 32, 6-(2-chlorophenyl)-9-(2-thienylsulfonyl)carbamoyl-7,8,9,10-tetrahydro-1-methyl-4H-pyrido[4',5':4,5]thieno[3,2-f]1,2,4-triazolo[4,3-a]1,4-diazepine] as the compound, how does the IC50 [2] read?
The IC50 was 66.6 nM.

And the IC50 (benzodiazepine receptors)?
Its IC50 is 4330 nM.

With Cc1nnc2n1-c1sc3c(c1C(c1ccccc1Cl)=NC2)CCN(C(=O)NS(=O)(=O)c1cccnc1)C3 [Example 34, 6-(2-chlorophenyl)-9-(3-pyridylsulfonyl)carbamoyl-7,8,9,10-tetrahydro-1-methyl-4H-pyrido[4',3':4,5]thieno[3,2-f]1,2,4-triazolo[4,3-a]1,4-diazepine] as the compound, how does the IC50 [2] read?
The IC50 was 100 nM.

What about the IC50 (benzodiazepine receptors) of the same compound?
Its IC50 is 40000 nM.

For Cc1nnc2n1-c1sc3c(c1C(c1ccccc1Cl)=NC2)CCN(C(=S)NS(=O)(=O)c1ccnc2ccccc12)C3 [Example 35, 6-(2-chlorophenyl)-9-(4-quinolylsulfonyl)thiocarbamoyl-7,8,9,10-tetrahydro-1-methyl-4H-pyrido[4',3':4,5]thieno [3,2-f]1,2,4-triazolo[4,3-a]1,4-diazepine], which IC50 [2] is on record?
The IC50 was 34 nM.

And the IC50 (benzodiazepine receptors)?
Its IC50 is 2200 nM.

Which IC50 [2] does the source give for Cc1nnc2n1-c1sc3c(c1C(c1ccccc1Cl)=NC2)CCN(C(=O)NS(=O)(=O)N1CCOCC1)C3 [Example 36, 6-(2-chlorophenyl)-9-(4-morpholinylsulfonyl)carbamoyl-7,8,9,10-tetrahydro-1-methyl-4H-pyrido[4',3':4,5]thieno[3,2-f]1,2,4-triazolo[4,3-a]1,4-diazepine] here?
Its IC50 is 6.1 nM.

What about the IC50 (benzodiazepine receptors) of the same compound?
Its IC50 is 7250 nM.

Which results are given for Cc1nnc2n1-c1sc(CCC(=O)N3CCOCC3)cc1C(c1ccccc1Cl)=NC2 [WEB 2086, reference compound]?
Percentage of action [1]: -68.0%; Percentage of bronchoconstriction [1]: 25.3%
